One data set has as its system MDA-MB-231. Details: method as in PMID 28399915. To be noted: MDA-MB-231, dose 6.25–100 µg/mL, treatment period 12–48 h; cited from earlier work.
In another data set the test system is RAW264.7 macrophages. Details: method as in PMID 35956888. The note with it: cited from earlier work.
The subject of data set [1] is HEK-293 cells. Nature of the data set: Cytotoxicity over the five assays (MTT, NRU, TPC, LDH, BrdU). Format: cell-based. The note with it: Homo sapiens, HEK293, 72 h, read-out: IC50 values, range over the five assays. As to the method: (§1) The cytotoxic potential of the veterinary drug and its mixtures with cannabidiol at two non-toxic concentrations: 1.56 and 3.15 µg/mL, on the human SH-SY5Y, HepG2 and HEK 293 cell lines was assessed by decreased viability of the cells within five biochemical endpoints: mitochondrial activity and lysosomal activity (MTT assays, reducing the tetrazolium dye MTT 3-(4,5-dimethylthiazol-2-yl)-2,5-diphenyltetrazolium bromide and neutral red uptake (NRU) assays), total protein content (TPC assay), cellular membrane integrity (leakage lactate dehydrogenase (LDH) assay) and DNA synthesis (the bromodeoxyuridine/5-bromo-2′-deoxyuridine incorporation into the DNA cells (BrdU) assay) after 72 h exposition. Data obtained from the measurement of the optical density in these assays were transformed to percentages in relation to the negative control group (0.1% DMSO in medium), considered to be 100% for the MTT, NRU, TPC and BrdU assays and 0% for the LDH assay. 1% Trition-X 100 solution in medium was used as the positive controls, (Figure 3).
(§2) The human neuroblastoma (SH-SY5H), hepatoma (HepG2) and kidney cells (HEK 293) cells were purchased from the American Type Culture Collection: ATCCCRL-2266,ATCC HB-8065 and ATCC CRL-1573, respectively. These cells were cultured in Minimum Essential Medium Eagle (MEME) (ATCC). […] Cytotoxicity was assessed after 72 h of exposure of the cells to the compounds. […]

Data set [2] deals with HepG2 cells. The data set is described as above. The data set is classed as cell-based. The note with it: Homo sapiens, HepG2, 72 h, read-out: IC50 values, range over the five assays. As to the method:
as §1, §2

For data set [3], the system named is HEK-293 cells. Kind of data set: DCFH-DA assay of reactive oxygen species (ROS). The note with it: HEK-293, lowest concentration of tiamulin, 72 h. The data set is classed as cell-based, human. As to the method: (§3) The human neuroblastoma (SH-SY5H), hepatoma (HepG2) and kidney cells (HEK 293) cells were purchased from the American Type Culture Collection: ATCCCRL-2266,ATCC HB-8065 and ATCC CRL-1573, respectively. These cells were cultured in Minimum Essential Medium Eagle (MEME) (ATCC). The media were supplemented with 10% FBS, 1% L-glutamine (and 1% antibiotic solution (P4333 Sigma). The cells were maintained in 75 cm^2 cell culture flasks (NUNC) in a humidified incubator at 37 °C in an atmosphere of 5% CO2. The medium was refreshed every two or three days, and the cells were subcultured by 0.25% trypsin–0.02% EDTA after reaching 70–80% confluence. Single cell suspensions were prepared and adjusted to a density of 2 × 10^5 cell/mL^−1 (SH-SY5H), 1 × 10^5 cell/mL^−1 (HepG2) and 1 × 10^5 cell/mL^−1 (HEK-293). The cell suspension was transferred to 96-well plates (100 µL/well) or Lab-Tek chamber slides (8 wells) (Nunc) for staining and incubated for 24 h before the exposure to the studied compounds. Stock solutions of tiamulin fumarate and cannabidiol were prepared in DMSO and diluted with culture medium to obtain a concentration range from 1.56 to 200 µg/mL and 1.56 or […], respectively. The selection of tiamulin concentrations was based on data from the literature and pilot studies. The final concentration of DMSO was 0.1% in the medium. The same final concentrations of the solvent and the 1% Trition-X 100 solution were used as the negative and positive controls, respectively. A total of 500 µM hydrogen peroxide (H2O2) in was used as the positive control in the DCFH assay. […] As a negative control, cultured cells were grown in the absence of studied compounds. […] Cytotoxicity was assessed after 72 h of exposure of the cells to the compounds. […]
(§4) Intracellular levels of ROS were evaluated using the redox-sensitive fluorescent dye DCFH-DA [62]. […] After 72 h of incubation, the fluorescence of 2′,7′-dichlorofluorescein (DCF) was measured. Fluorescence was determined at 485/530 nm using a fluorescence microplate reader (BioTek® Instruments Inc., Winooski, VT, USA).

Data set [4] relates to HepG2 cells. Nature of the data set: DCFH-DA assay of reactive oxygen species (ROS). Format: cell-based, human. The note with it: HepG2, lowest concentration of tiamulin, 72 h. As to the method:
as §3, §4

Data set [5] relates to SH-SY5Y cells. Kind of data set: DCFH-DA assay of reactive oxygen species (ROS). Format: cell-based, human. The note with it: lowest concentration of tiamulin, 72 h. As to the method:
as §3, §4

A further data set deals with HEK 293 cells. Nature of the data set: TPC assay (total protein content, proliferation). The data set is classed as cell-based, human. As to the method: as §1
(§5) The human neuroblastoma (SH-SY5H), hepatoma (HepG2) and kidney cells (HEK 293) cells were purchased from the American Type Culture Collection: ATCCCRL-2266,ATCC HB-8065 and ATCC CRL-1573, respectively. These cells were cultured in Minimum Essential Medium Eagle (MEME) (ATCC). The media were supplemented with 10% FBS, 1% L-glutamine (and 1% antibiotic solution (P4333 Sigma). The cells were maintained in 75 cm^2 cell culture flasks (NUNC) in a humidified incubator at 37 °C in an atmosphere of 5% CO2. The medium was refreshed every two or three days, and the cells were subcultured by 0.25% trypsin–0.02% EDTA after reaching 70–80% confluence. Single cell suspensions were prepared and adjusted to a density of 2 × 10^5 cell/mL^−1 (SH-SY5H), 1 × 10^5 cell/mL^−1 (HepG2) and 1 × 10^5 cell/mL^−1 (HEK-293). The cell suspension was transferred to 96-well plates (100 µL/well) or Lab-Tek chamber slides (8 wells) (Nunc) for staining and incubated for 24 h before the exposure to the studied compounds. Stock solutions of tiamulin fumarate and cannabidiol were prepared in DMSO and diluted with culture medium to obtain a concentration range from 1.56 to 200 µg/mL and 1.56 or 3.156 µg/mL, respectively. The selection of tiamulin concentrations was based on data from the literature and pilot studies. The final concentration of DMSO was 0.1% in the medium. The same final concentrations of the solvent and the 1% Trition-X 100 solution were used as the negative and positive controls, respectively. A total of 500 µM hydrogen peroxide (H2O2) in was used as the positive control in the DCFH assay. […] As a negative control, cultured cells were grown in the absence of studied compounds. Each concentration was tested in six replicates in three independent experiments. Cytotoxicity was assessed after 72 h of exposure of the cells to the compounds. The medium was not changed during the incubation time.
(§6) This assay is based upon staining the total cellular protein (proliferation). After the incubation, the medium containing the drug was removed, and 100 µL Coomassie brilliant blue R-250 dye was added to each well. The plate was shaken for 10 min. Then, the stain was removed and the cells were rinsed twice with 100 µL of washing solution (glacial acetic acid/ethanol/water, 5:10:85, v:v:v). After that, 100 µL of the desorbing solution (1 M potassium acetate) was added, and plates were shaken again for 10 min. The absorbance was measured at 595 nm in a Synergy 2 Multi-Mode Microplate Reader (BioTek® Instruments Inc., Winooski, VT, USA) using a blank as a reference. Cytotoxicity was expressed as a percentage of the negative control (0.1% DMSO in medium).
(§7) This study was performed in three independent experiments. The obtained results are presented as mean values ± SD (standard deviation). […]

The subject of data set [6] is HepG2 cells. Nature of the data set: TPC assay (total protein content, proliferation). Format: cell-based, human. The note with it: HepG2, 72 h. As to the method: as §1, §5, §6, §7
Data set [7] deals with SH-SY5Y cells. Nature of the data set: TPC assay (total protein content, proliferation). Format: cell-based, human. To be noted: 72 h. As to the method: as §1, §5, §6, §7
Setting [8] is: Homo sapiens, read-out: inhibited concentration (IC50), TPC.

Structures can show the parent of a compound that is named as a salt.

Regarding `C=C[C@]1(C)C[C@@H](OC(=O)CSCCN(CC)CC)[C@]2(C)[C@H](C)CC[C@]3(CCC(=O)[C@H]32)[C@@H](C)[C@@H]1O` [T, tiamulin fumarate], in the data set on MDA-MB-231, the cell viability entry is “cell viability decreased with increasing dose”. For the same compound, in the data set on RAW264.7 macrophages, the “concentrations that did not result in 50% reduction in the macrophages' viability” value is given as “up to 20 μg/mL”. For the same compound, in the data set with RAW264.7 macrophages, the “concentrations with no significant cytotoxicity” value is given as “less than 5 μg/mL”. Besides, the IC50 with HEK-293 cells [1] is 8.5 to 76.9 µg/mL; in the data set on HepG2 cells [2], 13.9 to 39.5 µg/mL; in the data set with HEK 293 cells (Homo sapiens, HEK293, 72 h, read-out: inhibited concentration (IC50), TPC) it was 8.5 ± 0.6 µg/mL; in the data set on HepG2 cells [6] (setting [8]), 26.7 ± 1.4 µg/mL; in the data set with SH-SY5Y cells [7] (setting [8]) it was 169 ± 3.3 µg/mL. Moreover, the “increase in fluorescence intensity of the probes (ROS)” value in the data set on HEK-293 cells [3] is 91%; in the data set with HepG2 cells [4], 44%; in the data set on SH-SY5Y cells [5], 66%. For the same compound, the “tiamulin concentration that inhibited proliferation” value in the data set on HEK 293 cells (HEK-293, 72 h) is reported as 12.5 µg/mL. Moreover, in the data set on HepG2 cells [6], the “tiamulin concentration that inhibited cell proliferation” value is 50 µg/mL. The “tiamulin concentration that decreased total protein content / inhibited proliferation” value in the data set on SH-SY5Y cells [7] came to 25 µg/mL.

Values taken from paper PMC11676896, “Protective Action of Cannabidiol on Tiamulin Toxicity in Humans—In Vitro Study” (International Journal of Molecular Sciences, 2024).
